Measured values: US4430328A, “Ruminant lactation improvement” (Eli Lilly and Company, priority 1982, dated 1984)

How the values were obtained:
Holstein cows = assay: nine-week comparative activity and persistency test of glycopeptides; type: in vivo; conditions: 600 mg/head/day
Procedure: Another test was carried out to determine the comparative activity of glycopeptides and their persistency in altering milk production. Holstein cows were assigned as they calved to blocks of […] cows each. Within each block a random order of treatments was assigned. A nine-week study was started two weeks following calving. All cows underwent a one week preliminary period during which they received corn silage-concentrate, grain, hay and water. During the following eight week period, in addition to the normal feed ration, one group of six animals received no treatment (controls), another group of six animals received 600 mg/head/day actaplanin, and a third group of six cows received 600 mg/head/day of glycopeptide A35512B. Average daily milk production, milk composition, and persistency of milk production were analyzed. The data in Table VI are the averages for the daily determinations for the entire nine week trial period. The table reports average milk production and milk composition of nontreated controls and treated groups. The persistency values were calculated by dividing the average milk production during the eight week treatment period by average production during the preliminary non-treatment period. Persistency values express how well the treatment groups performed after initialization of treatment compared to performance before treatment initialization. Normal persistency for the trial was expected to be about 94 to about 96 percent. All treatment groups had higher persistencies, thus indicating an observable response to treatment even during a short term.

dairy cows = conditions: cited from earlier work

## COC(=O)[C@H]1NC(=O)[C@H]2NC(=O)[C@H](NC(=O)[C@@H]3NC(=O)C4NC(=O)[C@H](NC(=O)[C@H](N)c5cccc(O)c5Oc5cc(O[C@@H]6O[C@H](C)[C@H](O)[C@H](O)[C@@H]6O)c(Cl)c4c5)[C@H](O)c4ccc(cc4)Oc4cc3cc(c4O[C@@H]3O[C@H](CO)[C@@H](O)[C@@H](O[C@@H]4O[C@@H](C)[C@@H](O)[C@@H](O)[C@H]4O)[C@H]3O)Oc3ccc(cc3)[C@H]2O[C@H]2C[C@](C)(N)[C@H](O)[C@H](C)O2)c2ccc(O[C@H]3O[C@@H](CO)[C@H](O)[C@@H](O)[C@@H]3O)c(c2)-c2c(O)cc(O)cc21 [A35512B]
Holstein cows
  Milk Composition Fat: 3.36%
  Milk Composition Protein: 3.36%
  Milk Composition Solids: 11.44%
  protein content compared to non-treated controls: may be enhanced
Holstein cows; average of daily determinations, nine week trial
  Milk Produced: 56.0 pounds/day
Holstein cows; average production in eight week treatment period divided by preliminary period
  Persistency: 99.4%

## CC[C@@]1([C@@H]2O[C@@H]([C@H]3O[C@@](O)(CO)[C@H](C)C[C@@H]3C)C[C@@H]2C)CC[C@H]([C@]2(C)CC[C@]3(C[C@H](O)[C@@H](C)[C@@H]([C@@H](C)[C@@H](OC)[C@H](C)C(=O)O)O3)O2)O1 [monensin]
Dairy cows
  fat content of milk: significantly reduced
  fat-corrected-milk production: unchanged
  volume of milk produced: increase
